This note sets out measurements from US20240368668A1, “SUBSTRATES AND BIOMARKERS OF ADAMTS7” (The Broad Institute, Inc., priority 2021, published 2024).

Test [1] concerns mouse ADAMTS7. Briefly: TMT10 TAILS N-terminomics, HUVEC experiment (process replicates, trypsin/AspN digest). It counts as cell-based, human. To be noted: HUVEC TAILS HC; log fold change of N-terminal peptide, Ad-mADAMTS7 WT over EQ. A digest of the protocol:
(§1)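 Full-length mouse ADAMTS7 (WT or E373Q mutant, C-terminal 3xFLAG) or luciferase was transduced via adenovirus, 50 MOI, into HCA-SMC (SMC1, SMC2) or HUVEC. SMC1: pooled media, technical triplicates 400 ug; SMC2: process triplicates 300 ug; HUVEC: process triplicates 200 ug, bFGF2 10 ng/ml.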

The test system of test [2] is mouse ADAMTS7. Briefly: TMT10 TAILS N-terminomics, SMC2 experiment (process replicates, trypsin/AspN digest). It counts as cell-based. To be noted: for logFC.mWT.over.mEQ: SMC2_TAILS HC, log fold change. A digest of the protocol: as §1

For the substance “FN1_2113 (FVTHPGY; listed as Homo sapiens)”, the logFC.mWT.over.mEQ with mouse ADAMTS7 [1] was determined as 1.67; in the test with mouse ADAMTS7 [2], 1.57.
As to “FSTL1_290 (LQKHQETA; listed as Homo sapiens)”, in the test with mouse ADAMTS7 [1], the logFC.mWT.over.mEQ amounted to 2.57. Besides, in the test on mouse ADAMTS7 [2] (TAILS HC Overlap, SMC2, log fold change mouse ADAMTS7 WT over catalytically inactive EQ), the “SMC2 logFC.mWT.over.mEQ” value turned out to be 2.86.
“LOX_125 (FQAGYSTSR; listed as Homo sapiens)”: the figures for the logFC.mWT.over.mEQ in the test with mouse ADAMTS7 [1] and in the test on mouse ADAMTS7 [2] were 3.58 and 3.33, respectively.
